Consider four molecules from patent publication US5246959A, “Poly(aminoalkyl)aminocarbonyl aminoacyl aminodiol amino acid derivatives as anti-hypertensive agents” (G. D. Searle & Co., priority 1991, dated 1993).

Where a SMILES comes first, the peptide text is derived from it. [ ]: non-standard residue; d: D form. The star is where a group is joined. Sta = CC(C)C[C@H](N)[C@@H](O)CC(=O)O; Isovaleryl = CC(C)CC(=O)*

The target of one assay is T1, Human Renin (Homo sapiens, UniProt P00797).
T1 construct: purchased National Institute for Biological Standards, London
T1 sequence (P00797 67-406): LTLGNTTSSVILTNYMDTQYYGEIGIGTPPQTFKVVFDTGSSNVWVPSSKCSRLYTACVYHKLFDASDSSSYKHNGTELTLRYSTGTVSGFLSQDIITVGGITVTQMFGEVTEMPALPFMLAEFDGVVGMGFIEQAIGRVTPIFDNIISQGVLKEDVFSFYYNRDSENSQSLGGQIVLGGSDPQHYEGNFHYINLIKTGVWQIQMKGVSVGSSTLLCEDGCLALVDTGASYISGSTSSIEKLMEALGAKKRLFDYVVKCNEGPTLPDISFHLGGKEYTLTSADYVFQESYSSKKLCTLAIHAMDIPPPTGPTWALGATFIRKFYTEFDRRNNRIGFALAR
As to the kind of experiment: human renin inhibition test in vitro (angiotensin I by radioimmunoassay). The class given is biochemical. Particulars: pH 7.4, 37° C., two hours, human plasma. How it is done:
Compounds of Formula I were evaluated as inhibitors of human renin in an in vitro assay, as follows: This human renin inhibition test has been previously described in detail [Papaioannou et al., Clinical and Experimental Hypertension, A7(9), 1243-1257 (1985)]. Human renin was obtained from the National Institute for Biological Standards, London. An incubation mixture was prepared containing in a total volume of 0.25 mL 100 mM Tris-acetate buffer at pH 7.4, 25×10^-6 Goldblatt units of renin, 0.05 mL of plasma from human volunteers taking oral contraceptives, 6.0 mM sodium EDTA, 2.4 mM phenylmethyl sulfonyl fluoride, 1.5 mM 8-hydroxyquinoline, 0.4 mg/mL BSA, and 0.024 mg/mL neomycin sulfate. This mixture was incubated for two hours at 37° C. in the presence or absence of renin inhibitors. The produced angiotensin I was determined by radioimmunoassay (New England Nuclear kit). Test compounds to be assayed were solubilized in DMSO and diluted with 100 mM Trisacetate buffer at pH 7.4 containing 0.5% bovine serum albumin (BSA) to the appropriate concentration. The final concentration of organic solvent in the reaction mixture was less than 1%. Control incubations at 37° C. were used to correct for effects of organic solvent on renin activity.

The next assay concerns pepsin. Particulars: cited from earlier work.
Another assay relates to renin. Particulars: cited from earlier work.
For a further assay, the system named is hog renin. The conditions noted are these: after injection of hog renin into nephrectomized rats; cited from earlier work.
The subject of the next assay is cathepsin D. Particulars: cited from earlier work.

Usually IC50 stands for the midpoint of a concentration-inhibition curve. Read a high IC50 as lower potency. Turning to `CC(C)C[C@H](NC(=O)[C@H](Cc1ccccc1)OC(=O)N(C)CCN(C)CCN(C)C)C(=O)N[C@@H](CC1CCCCC1)[C@@H](O)[C@@H](O)CC(C)C` [Example 10], the IC50 against Human Renin came to 2.4 nM. This counts as single-digit nanomolar.
As for `CC(C)C[C@H](O)[C@H](O)[C@H](CC1CCCCC1)NC(=O)[C@H](Cc1cnc[nH]1)NC(=O)[C@H](Cc1ccccc1)OC(=O)N(C)CCN(C)CCN(C)C` [Example 11, O-{N-[2-{N-[2-(N,N-dimethylamino)ethyl]-N-methylamino}-ethyl]-N-methylaminocarbonyl}-3-L-phenyllactyl-L-histidineamide of (2S,3R,4S)-2-amino-1-cyclohexyl-3,4-dihydroxy-6-methylheptane], at Human Renin, inhibition was half-maximal at 1 nM (IC50).
Consider `CC(C)C[C@H](O)[C@H](O)[C@H](CC1CCCCC1)NC(=O)[C@H](C)CNC(=O)[C@H](Cc1ccccc1)OC(=O)N(C)CCN(C)CCN(C)C` [Example 12], for which the IC50 at Human Renin was determined as 110 nM. Compared with the last molecule, the IC50 is about 110-fold higher.
On to `CC(C)CC(=O)N[C@H](C(=O)N[C@H](C(=O)N[C@@H](CC(C)C)[C@@H](O)CC(=O)N[C@@H](C)C(=O)N[C@@H](CC(C)C)[C@@H](O)CC(=O)O)C(C)C)C(C)C` [pepstatin] (Isovaleryl-VV[Sta]A[Sta]-OH), for which, in the assay on pepsin, the inhibitor of pepsin result was “inhibitor”. Also, the inhibitor of renin result with renin was “inhibitor”. In addition, the “reduce blood pressure in vivo” value with hog renin is reported as “found to reduce blood pressure in vivo”. Also, in the assay on cathepsin D, the “inhibitor of cathepsin D” value is reported as “inhibitor”.
